Measured values published in US6677328B1, “Method for the prevention of colonic adenomas” (priority 1995, dated 2004).

Legend:
Format in all cases: in vivo, Male Fischer 344 rats
[1] = test system: azoxymethane-induced colon neoplasms in Fischer 344 rats; experiment: Azoxymethane-induced colon tumors in rats on supplemented AIN-76 diet (Example 1); conditions: for Tumor bearing rats, total, number / Tumor bearing rats, benign (adenoma), number / Tumor bearing rats, benign (adenoma), {%} / Tumor bearing rats, malignant (cancers), number / Tumor bearing rats, malignant (cancers), {%} / Tumor bearing rats, total, {%}: azoxymethane 15 mg/kg s.c., sacrifice after 28 weeks
Experimental: (§1) The control group diet is not supplemented at all. After 2 weeks, half of the rats in each group receive azoxymethane (15 mg/kg) or azoxymethane vehicle subcutaneously once a week for two weeks. […] After 28 weeks, the rats are sacrificed, the colons harvested and examined for neoplasms. None of the rats injected with azoxymethane vehicle develop tumors. Since it is believed that malignancies develop from adenomas, the total tumor bearing rat values are particularly enlightening as this represents the number of growths that are still in the adenoma stage and the number of growths that have continued to progress to cancers. Ursodiol reduced the number of growths from control by 50%, with a 100% reduction in those that progressed to cancers and a 33% reduction in the number of tumors that still remained as adenomas.

[2] = test system: azoxymethane-induced colon neoplasms in Fischer 344 rats; experiment: Azoxymethane rat model, incidence of microadenomas, adenomas and cancers (Example 2); parameters: Tumor bearing rats, benign (microadenoma) / Tumor bearing rats, benign (adenoma) / Tumor bearing rats, malignant (cancers) / Tumor bearing rats, total: unit not given here; conditions: for Tumor bearing rats, total / Tumor bearing rats, benign (adenoma) / Tumor bearing rats, benign (microadenoma) / Tumor bearing rats, malignant (cancers): azoxymethane model as Example 1
Experimental: as §1
The procedure of Example 1 was followed except that the number of rats involved are as stated in the table below and aberrant crypt frequency was examined upon sacrifice of the rats. The incidence of microadenomas, adenomas, and cancers in the tested populations was recorded and appears in the table below.

[3] = test system: azoxymethane-induced colon neoplasms in Fischer 344 rats; experiment: Azoxymethane rat model, 7 diets, two study centers (Example 3)
Experimental: The control group diet is not supplemented at all. After 2 weeks, half of the rats in each group receive azoxymethane (15 mg/kg) or azoxymethane vehicle subcutaneously once a week for two weeks. […] After 28 weeks, the rats are sacrificed, the colons harvested and examined for neoplasms.

[4] = Study Center 2, standard diet + 0.2%
[5] = Study Center 2, standard diet + 0.4%
[6] = Study center 1, standard diet + 0.2%
[7] = Study center 1, standard diet + 0.4%
[8] = piroxicam diet, level not given
[9] = Study Center 2, standard diet + Piroxicam, level not given
[10] = Study center 1, standard diet + Piroxicam, level not given

| SMILES | Tumor bearing rats, benign (adenoma), number ([1]; diet supplement 0.4%) | Tumor bearing rats, benign (adenoma), {%} ([1]; diet supplement 0.4%) [%] | Tumor bearing rats, malignant (cancers), number ([1]; diet supplement 0.4%) | Tumor bearing rats, malignant (cancers), {%} ([1]; diet supplement 0.4%) | Tumor bearing rats, total, {%} ([1]; diet supplement 0.4%) [%] | Tumor bearing rats, benign (adenoma) ([2]; diet supplement 0.4%) | Tumor bearing rats, benign (microadenoma) ([2]; diet supplement 0.4%) | Tumor bearing rats, malignant (cancers) ([2]; diet supplement 0.4%) | Tumor bearing rats, benign [3, 4] | Tumor bearing rats, malignant [3, 4] | Tumor bearing rats, total [3, 4] | Tumor bearing rats, benign [3, 5] | Tumor bearing rats, malignant [3, 5] | Tumor bearing rats, total [3, 5] | Tumor bearing rats, benign [3, 6] | Tumor bearing rats, malignant [3, 6] | Tumor bearing rats, total [3, 6] | Tumor bearing rats, benign [3, 7] | Tumor bearing rats, malignant [3, 7] | Tumor bearing rats, total [3, 7] | further results |
| --- | --- | --- | --- | --- | --- | --- | --- | --- | --- | --- | --- | --- | --- | --- | --- | --- | --- | --- | --- | --- | --- |
| C[C@H](CCC(=O)O)[C@H]1CC[C@H]2[C@@H]3[C@H](O)C[C@@H]4C[C@H](O)CC[C@]4(C)[C@H]3C[C@H](O)[C@]12C [Cholic Acid, Cholic acid] | 20 | 43 | 14 | 30% | 73 | 71 | 57 | 38 | 6 | 8 | 14 | 8 | 9 | 17 | 12 | 4 | 16 | 12 | 5 | 17 | Effect on number of adenomas present ([1]; 0.4% in diet, in words): increased the number of adenomas which were present; Effect on number of malignancies over control ([1]; 0.4% in diet, in words): increased the number of malignancies over control; Tumor bearing rats, total, number ([1]; control, diet not supplemented): 34; Tumor bearing rats, total [2]: 166 |
| CN1C(C(=O)Nc2ccccn2)=C(O)c2ccccc2S1(=O)=O [Piroxicam] |  |  |  |  |  |  |  |  |  |  |  |  |  |  |  |  |  |  |  |  | Effect on adenomas and malignancies ([1]; 75 ppm in diet, in words, compared with ursodiol): reduced both adenomas and malignancies, but neither was reduced as dramatically as seen with ursodiol administration; Tumor bearing rats, benign (adenoma), number ([1]; diet supplement 75 ppm): 16; Tumor bearing rats, benign (adenoma), {%} ([1]; diet supplement 75 ppm): 29%; Tumor bearing rats, malignant (cancers), number ([1]; diet supplement 75 ppm): 3; Tumor bearing rats, malignant (cancers), {%} ([1]; diet supplement 75 ppm): 5%; Tumor bearing rats, total, number ([1]; diet supplement 75 ppm): 19; Tumor bearing rats, total, {%} ([1]; diet supplement 75 ppm): 34%; Tumor bearing rats, benign (adenoma) [2, 8]: 42; Tumor bearing rats, benign (microadenoma) [2, 8]: 25; Tumor bearing rats, malignant (cancers) [2, 8]: 8; Tumor bearing rats, total [2, 8]: 75; Tumor bearing rats, benign [3, 9]: 8; Tumor bearing rats, malignant [3, 9]: 2; Tumor bearing rats, total [3, 9]: 10; Tumor bearing rats, benign [3, 10]: 8; Tumor bearing rats, malignant [3, 10]: 1; Tumor bearing rats, total [3, 10]: 9 |
| C[C@H](CCC(=O)O)[C@H]1CC[C@H]2[C@@H]3[C@@H](O)C[C@@H]4C[C@H](O)CC[C@]4(C)[C@H]3CC[C@]12C [Ursodiol, 3-α-7-β-dihydroxy-5-β-cholan-24-oic acid] | 10 | 22 | 0 {0} | 0 {0} % | 22 | 27 | 23 | 0 | 6 | 4 | 10 | 6 | 0 | 6 | 8 | 5 | 13 | 4 | 0 | 4 | Reduction of the number of growths from control ([1]; 0.4% in diet, total tumor bearing rats vs control): 50%; Reduction in growths that progressed to cancers ([1]; 0.4% in diet, vs control): 100%; Reduction in the number of tumors that still remained as adenomas ([1]; 0.4% in diet, vs control): 33%; Tumor bearing rats, total, number ([1]; diet supplement 0.4%): 10; Effect on incidence of malignancies and on number and size of non-cancerous or pre-cancerous growths ([2]; 0.4% in diet, in words): not only reduces the incidence of malignancies, but also reduces both the number and size of the non-cancerous or pre-cancerous growths; Tumor bearing rats, total ([2]; diet supplement 0.4%): 50; Effect in preventing the development of tumors at lower concentration ([3]; 0.2% in diet compared with 0.4%, in words): does not seem to be as strong as lower concentrations of ursodiol, i.e., 0.2% |
